Results reported in PubChem BioAssay (NCI).
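1) Cells in 96-well plates. 2) Compound, 48 h, 5 concentrations. 3) Linear interpolation between surrounding doses. 4) Unreached endpoint = highest concentration. GI50: concentration for 50% inhibition of growth. TGI: concentration producing complete growth inhibition.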

Tests used:
Test in all cases: NCI tumour cell line growth inhibition, 48 h
[1] = system: OVCAR-5 ovarian
[2] = system: A549 NSCLC
[3] = system: UO-31 renal
[4] = system: SK-MEL-5 melanoma
[5] = system: RXF 393 renal
[6] = system: UACC-257 melanoma
[7] = system: HCT-15 colon
[8] = system: MOLT-4 leukemia
[9] = system: U251 CNS
[10] = system: SF-268 CNS
[11] = system: A498 renal
[12] = system: KM12 colon
[13] = system: SF-539 CNS
[14] = system: UACC-62 melanoma
[15] = system: K-562 leukemia
[16] = system: MDA-MB-231 breast
[17] = system: TK-10 renal
[18] = system: MCF7 breast
[19] = system: ACHN renal
[20] = system: HT29 colon
[21] = system: SK-MEL-2 melanoma
[22] = system: RPMI-8226 leukemia
[23] = system: SNB-75 CNS
[24] = system: NCI-H460 lung
[25] = system: CAKI-1 renal
[26] = system: HCC-2998 colon
[27] = system: NCI-H23 lung
[28] = system: SN12C renal
[29] = system: HL-60(TB) leukemia
[30] = system: MALME-3M melanoma
[31] = system: BT-549 breast
[32] = system: PC-3 prostate
[33] = system: EKVX NSCLC
[34] = system: LOX IMVI melanoma
[35] = system: MDA-MB-435
[36] = system: M14 melanoma
[37] = system: SK-OV-3 ovarian
[38] = system: SK-MEL-28 melanoma
[39] = system: SR leukemia
[40] = system: NCI-H226 lung
[41] = system: SF-295 CNS
[42] = system: OVCAR-3 ovarian
[43] = system: COLO 205 colon
[44] = system: HOP-62 NSCLC
[45] = system: SNB-19 CNS
[46] = system: IGROV1 ovarian
[47] = system: 786-0 renal
[48] = system: MDA-MB-468 breast
[49] = system: HS 578T breast
[50] = system: DU-145 prostate
[51] = system: OVCAR-8 ovarian
[52] = system: OVCAR-4 ovarian
[53] = system: T-47D breast
[54] = system: NCI-H522 lung
[55] = system: CCRF-CEM leukemia
[56] = system: HCT-116 colon
[57] = system: SW-620 colon
[58] = system: HOP-92 NSCLC

Structure (SMILES): CSc1ccc(NC(=O)c2ccc3nn(/C(C#N)=C/c4ccccn4)nc3c2)cc1
- GI50 [1]: 1.59 µM
- TGI [1]: 3.07 µM
- GI50 [2]: 2.34 µM
- TGI [2]: 5.99 µM
- GI50 [3]: 1.2 µM
- TGI [3]: 2.43 µM
- GI50 [4]: 1.68 µM
- TGI [4]: 3.11 µM
- GI50 [5]: 1.24 µM
- TGI [5]: 2.51 µM
- GI50 [6]: 1.64 µM
- TGI [6]: 3.17 µM
- GI50 [7]: 1.15 µM
- TGI [7]: 2.51 µM
- GI50 [8]: 0.796 µM
- TGI [8]: 4.63 µM
- GI50 [9]: 1.59 µM
- TGI [9]: 3.17 µM
- GI50 [10]: 2.36 µM
- TGI [10]: 6.21 µM
- GI50 [11]: 1.9 µM
- TGI [11]: 3.71 µM
- GI50 [12]: 2.07 µM
- TGI [12]: 4.44 µM
- GI50 [13]: 1.67 µM
- TGI [13]: 3.04 µM
- GI50 [14]: 1.62 µM
- TGI [14]: 3.06 µM
- GI50 [15]: 0.681 µM
- TGI [15]: 5.05 µM
- GI50 [16]: 1.52 µM
- TGI [16]: 2.97 µM
- GI50 [17]: 1.75 µM
- TGI [17]: 3.21 µM
- GI50 [18]: 0.971 µM
- TGI [18]: 2.47 µM
- GI50 [19]: 1.55 µM
- TGI [19]: 2.88 µM
- GI50 [20]: 1.87 µM
- TGI [20]: 4.51 µM
- GI50 [21]: 1.88 µM
- TGI [21]: 3.53 µM
- GI50 [22]: 1.77 µM
- TGI [22]: 5.71 µM
- GI50 [23]: 1.42 µM
- TGI [23]: 4.26 µM
- GI50 [24]: 1.88 µM
- TGI [24]: 3.95 µM
- GI50 [25]: 1.07 µM
- TGI [25]: 2.35 µM
- GI50 [26]: 1.65 µM
- TGI [26]: 3.01 µM
- GI50 [27]: 1.57 µM
- TGI [27]: 2.99 µM
- GI50 [28]: 1.87 µM
- TGI [28]: 3.97 µM
- GI50 [29]: 0.626 µM
- TGI [29]: 3.75 µM
- GI50 [30]: 1.45 µM
- TGI [30]: 2.83 µM
- GI50 [31]: 1.67 µM
- TGI [31]: 3.11 µM
- GI50 [32]: 1.88 µM
- TGI [32]: 3.97 µM
- GI50 [33]: 1.54 µM
- TGI [33]: 3.01 µM
- GI50 [34]: 1.23 µM
- TGI [34]: 2.52 µM
- GI50 [35]: 1.54 µM
- TGI [35]: 3.19 µM
- GI50 [36]: 1.78 µM
- TGI [36]: 3.3 µM
- GI50 [37]: 2.72 µM
- TGI [37]: 6.96 µM
- GI50 [38]: 1.67 µM
- TGI [38]: 3.05 µM
- GI50 [39]: 1.15 µM
- TGI [39]: 7.6 µM
- GI50 [40]: 1.98 µM
- TGI [40]: 4.73 µM
- GI50 [41]: 1.73 µM
- TGI [41]: 3.29 µM
- GI50 [42]: 0.991 µM
- TGI [42]: 2.64 µM
- GI50 [43]: 1.72 µM
- TGI [43]: 3.3 µM
- GI50 [44]: 1.95 µM
- TGI [44]: 3.87 µM
- GI50 [45]: 1.85 µM
- TGI [45]: 4.26 µM
- GI50 [46]: 1.74 µM
- TGI [46]: 3.36 µM
- GI50 [47]: 1.7 µM
- TGI [47]: 3.13 µM
- GI50 [48]: 1.08 µM
- TGI [48]: 2.59 µM
- GI50 [49]: 2.2 µM
- TGI [49]: 7.68 µM

Structure (SMILES): Cn1cc(-c2cc(N)n3nc(-c4c[nH]c5ccc(F)cc45)cc3n2)c2cccnc21
- GI50 [1]: 3.33 µM
- TGI [1]: 13.4 µM
- GI50 [50]: 2.06 µM
- TGI [50]: 4.4 µM
- GI50 [2]: 2.48 µM
- TGI [2]: 7.91 µM
- GI50 [3]: 1.66 µM
- TGI [3]: 3.24 µM
- GI50 [4]: 11.6 µM
- TGI [4]: 24.1 µM
- GI50 [5]: 1.77 µM
- TGI [5]: 3.35 µM
- GI50 [51]: 3.18 µM
- TGI [51]: 11 µM
- GI50 [6]: 14.8 µM
- TGI [6]: 28 µM
- GI50 [7]: 1.82 µM
- TGI [7]: 4.14 µM
- GI50 [8]: 2.42 µM
- TGI [8]: 7.73 µM
- GI50 [9]: 2 µM
- TGI [9]: 4.1 µM
- GI50 [10]: 11.6 µM
- TGI [10]: 39.6 µM
- GI50 [11]: 17 µM
- TGI [11]: 30.9 µM
- GI50 [12]: 2.5 µM
- TGI [12]: 6.26 µM
- GI50 [13]: 1.78 µM
- TGI [13]: 3.25 µM
- GI50 [14]: 1.77 µM
- TGI [14]: 3.34 µM
- GI50 [15]: 3.42 µM
- TGI [15]: 28.3 µM
- GI50 [16]: 1.92 µM
- TGI [16]: 3.7 µM
- GI50 [17]: 2.95 µM
- TGI [17]: 11.1 µM
- GI50 [18]: 2.01 µM
- TGI [18]: 4.19 µM
- GI50 [19]: 1.71 µM
- TGI [19]: 3.23 µM
- GI50 [20]: 1.91 µM
- TGI [20]: 3.85 µM
- GI50 [21]: 12.6 µM
- TGI [21]: 25.2 µM
- GI50 [22]: 2.43 µM
- TGI [22]: 7.74 µM
- GI50 [52]: 11.6 µM
- TGI [52]: 30 µM
- GI50 [24]: 1.8 µM
- TGI [24]: 3.61 µM
- GI50 [25]: 2.21 µM
- TGI [25]: 6.42 µM
- GI50 [53]: 2.9 µM
- TGI [53]: 13.2 µM
- GI50 [26]: 1.79 µM
- TGI [26]: 3.33 µM
- GI50 [27]: 2.52 µM
- TGI [27]: 7.67 µM
- GI50 [28]: 13.1 µM
- TGI [28]: 26.2 µM
- GI50 [29]: 1.9 µM
- TGI [29]: 4.71 µM
- GI50 [30]: 1.75 µM
- TGI [30]: 3.59 µM
- GI50 [54]: 13.8 µM
- TGI [54]: 27.4 µM
- GI50 [31]: 12.8 µM
- TGI [31]: 28.1 µM
- GI50 [55]: 2.35 µM
- TGI [55]: 7.74 µM
- GI50 [32]: 3.26 µM
- TGI [32]: 13.4 µM
- GI50 [33]: 3.47 µM
- TGI [33]: 14.9 µM
- GI50 [34]: 1.8 µM
- TGI [34]: 3.29 µM
- GI50 [35]: 1.92 µM
- TGI [35]: 4.18 µM
- GI50 [36]: 1.88 µM
- TGI [36]: 4.01 µM
- GI50 [56]: 1.9 µM
- TGI [56]: 3.6 µM
- GI50 [37]: 18.1 µM
- TGI [37]: 39.2 µM
- GI50 [38]: 1.7 µM
- TGI [38]: 3.17 µM
- GI50 [39]: 2.8 µM
- TGI [39]: > 100 µM
- GI50 [40]: 1.92 µM
- TGI [40]: 4 µM
- GI50 [41]: 1.69 µM
- TGI [41]: 3.17 µM
- GI50 [42]: 1.82 µM
- TGI [42]: 3.69 µM
- GI50 [43]: 1.78 µM
- TGI [43]: 3.46 µM
- GI50 [44]: 8.69 µM
- TGI [44]: 21.2 µM
- GI50 [57]: 1.83 µM
- TGI [57]: 3.78 µM
- GI50 [45]: 4.05 µM
- TGI [45]: 16.2 µM
- GI50 [46]: 2.24 µM
- TGI [46]: 5.39 µM
- GI50 [47]: 1.64 µM
- TGI [47]: 3.11 µM
- GI50 [48]: 1.66 µM
- TGI [48]: 3.27 µM
- GI50 [58]: 14.2 µM
- TGI [58]: 39 µM
- GI50 [49]: 16.9 µM
- TGI [49]: 54.2 µM

Structure (SMILES): Cc1cc(Nc2nc(-c3ccc(F)cc3)nc3ccccc23)n[nH]1
- GI50 [48]: 2.01 µM
- TGI [48]: 11.3 µM
